Test results as given in US20190175534A1, “PHARMACEUTICAL COMPOSITIONS COMPRISING DGLA AND USE OF SAME” (DS Biopharma Limited, priority 2016, published 2019).

Legend:
[1] = tested on: patients with moderate to severe atopic dermatitis; test: Phase II placebo-controlled study of oral DS107G: efficacy (IGA, EASI, SCORAD, pruritus VAS, BSA); assay type: in vivo, human; conditions: for IGA Non-Responders at Week 8, (%) / IGA Responders at Week 8, (%) / IGA Score Week 8: 0 - Clear, (%) / IGA Score Week 8: 1 - Almost Clear, (%) / IGA Score Week 8: 2 - Mild, (%) / IGA Score Week 8: 3 - Moderate, (%) / IGA Score Week 8: 4 - Severe, (%) / IGA Score Week 8: 5 - Very Severe, (%): ITT; for Visual analog scale of pruritus, Week 8/ET Actual, Mean / Visual analog scale of pruritus, Week 8/ET Actual, Median: oral 2 g once daily
Description: A randomised, double-blind, placebo-controlled, phase II study was performed to assess the efficacy and safety of orally administered DS107G (DGLA) to patients with moderate to severe atopic dermatitis. The primary objective of the study was to compare the efficacy of orally administered DS107G capsules, versus placebo, in the treatment of adult patients with moderate to severe atopic dermatitis. The secondary objective was to assess the safety of orally administered DS107G capsules, versus placebo, in adult patients with moderate to severe atopic dermatitis. The primary study endpoint was the proportion of patients achieving an IGA (Investigator Global Assessment) of 0 (clear) or 1 (almost clear) and a decrease of at least 2 points in IGA at week 8. Secondary study endpoints included:
Approximately 100 patients with moderate to severe atopic dermatitis were included in this multicenter, double-blind, placebo controlled, phase IIa study. All subjects signed an informed consent and underwent screening for study eligibility. Subjects were randomized (1:1) at baseline visit to either receive oral DS107G 2 g or placebo, once daily for 8 weeks in a fasting state.
Subjects visited the clinic on 6 occasions: at screening, baseline, week 2, week 4, week 8 (end of treatment/early termination) and week 10 (follow-up). All subjects exited the study at the week 10 visit. The primary efficacy variable was the proportion of patients achieving an IGA of 0 (clear) or 1 (almost clear), and a decrease of at least 2 points in IGA at week 8. Secondary efficacy variables included: IGA at other visits, pruritus (obtained from the SCORAD visual analog scale), EASI, BSA, POEM, DLQI, SCORAD and TEWL (for selected sites only). Safety was assessed through adverse events, physical examination, vital signs and safety laboratory tests (including pregnancy tests for women of childbearing potential), Pharmacokinetic samples were obtained at Baseline (Day 0), week 4 and week 8 visits in order to measure total and free DGLA plasma trough levels. Separate plasma samples were retained for later analysis of total fatty acid profile and interleukin profile.
The EASI is a composite score ranging from 0-72 that takes into account the degree of erythema, induration/papulation, excoriation, and lichenification (each scored from 0 to 3 separately) for each of four body regions, with adjustment for the percent of BSA involved for each body region and for the proportion of the body region to the whole body. A detailed procedure of EASI score calculation is provided below.
SCORAD is calculated as follows: Six items (erythema, edema/papulation, oozing/crusts, excoriation, lichenification, and dryness) are selected to evaluate the AD severity. The intensity of each item is graded using a 4-point scale:
The overall BSA affected by AD is evaluated (from 0 to 100%) and divided by 5. One patient's palm represents 1% of his/her total BSA. The maximum is 20.
Subjective items include loss of sleep and the occurrence of pruritus. These are evaluated by asking patients to indicate on the 10-cm scale (0-10) on the assessment form the point corresponding to the average value for the last three days/nights. The combined maximum score of these two is 20.
The sum of the above measures represents the SCORAD which can vary from 0 to 103. If the subjective scores of pruritus and loss of sleep are excluded, the SCORAD becomes objective SCORAD (score range 0-83).
Body Surface Area (BSA). The overall BSA affected by AD will be evaluated (from 0 to 100%) at each visit. One patient's palm represents 1% of his/her total BSA. For all study visits, except at screening, the BSA of involved skin will be measured with the SCORAD measurement and evaluated as a separate endpoint.
Subjects who fulfilled all the inclusion and none of the exclusion criteria were accepted in the study. Each subject read and signed an informed consent form prior to any screening procedures being performed. […]

[2] = set-up: species or system human; conditions: in vivo
Description: A single-center, double-blind, randomized, placebo-controlled, two part Phase one study was performed in healthy male and female subjects aged 18 to 45 years inclusive. The primary objective of this study was to assess the safety and plasma pharmacokinetics (PK) of orally administered single doses and orally administered multiple doses of DS107G capsules (once daily for 28 days) in healthy subjects.
Subjects were randomly assigned in a 3:1 ratio of DG107G to placebo by block randomization. Single dose part one of the study comprised three cohorts of eight subjects each, with the addition of Cohort four based on evaluation of the safety data of Cohort three by the Safety Monitoring Committee (SMC). A single oral dose of DS107G or matching placebo was administered to fasted subjects in Cohorts one to three (500, 1000, and 2000 mg, respectively) in parallel; subjects in Cohort four were administered a dose of 4000 mg following completion of Cohort three. Subjects in Cohort two received 1000 mg or matching placebo in the fed state at ≥14 days after the first dose.
Safety assessments were monitored throughout the study.
In Part one of the study, subjects in Cohorts one to three were administered a single dose of study drug (either 500-, 1000-, or 2000-mg as 500-mg DS107G capsules or matching placebo capsules) in parallel on study Day 1 after at least an 8-hour fast, according to Table 20. Cohort 4 was initiated following the review of safety data from Cohort 3 by the SMC.

[3] = oral 2 g once daily 8 weeks, n 35

## CCCCC/C=C\C/C=C\C/C=C\CCCCCCC(=O)O [DGLA, Dihomo gamma linolenic acid]
[1]; Moderate at baseline
  IGA Non-Responders at Week 8, (%): (72.4) %
  IGA Responders at Week 8, (%): (27.6) %
  IGA Score Week 8: 0 - Clear, (%): (13.8) %
  IGA Score Week 8: 1 - Almost Clear, (%): (13.8) %
  IGA Score Week 8: 2 - Mild, (%): (20.7) %
  IGA Score Week 8: 3 - Moderate, (%): (13.8) %
  IGA Score Week 8: 4 - Severe, (%): (3.4) %
  IGA Score Week 8: 5 - Very Severe, (%): (0.0) %
[1]; Very Severe/Severe at baseline
  IGA Non-Responders at Week 8, (%): (72.7) %
  IGA Score Week 8: 0 - Clear, (%): (0.0) %
  IGA Score Week 8: 1 - Almost Clear, (%): (13.6) %
  IGA Score Week 8: 2 - Mild, (%): (13.6) %
  IGA Score Week 8: 3 - Moderate, (%): (27.3) %
  IGA Score Week 8: 4 - Severe, (%): (13.6) %
  IGA Score Week 8: 5 - Very Severe, (%): (4.5) %
[1]; Very Severe/Severe at baseline, p-value 0.542
  IGA Responders at Week 8, (%): (27.3) %
[1]; total population (N = 51)
  IGA Non-Responders at Week 8, (%): (72.5) %
  IGA Score Week 8: 0 - Clear, (%): (7.8) %
  IGA Score Week 8: 1 - Almost Clear, (%): (13.7) %
  IGA Score Week 8: 2 - Mild, (%): (17.6) %
  IGA Score Week 8: 3 - Moderate, (%): (19.6) %
  IGA Score Week 8: 4 - Severe, (%): (7.8) %
  IGA Score Week 8: 5 - Very Severe, (%): (2.0) %
[1]; total population, decrease of at least 2 points in IGA score, p-value 0.065 (Cochran-Mantel-Haenszel), 0.228 (Fisher Exact)
  IGA Responders at Week 8, (%): (27.5) %
[1]; Table 9A (Week 4), n 35
  Visual analog scale of pruritus, Week 8/ET Actual, Mean: 4.6
  Visual analog scale of pruritus, Week 8/ET Actual, Median: 4.0
[1]; Table 9B (Week 8), n 35
  Visual analog scale of pruritus, Week 8/ET Actual, Mean: 4.6
  Visual analog scale of pruritus, Week 8/ET Actual, Median: 4.0
[1]; Week 8/ET, ANCOVA, p-value 0.831 vs placebo
  EASI, Change from baseline, LSMEANS: −8.0
[1]; intent to treat analysis, overall, p=0.057
  Primary efficacy end point (two point drop in IGA and end of treatment IGA of 0 or 1) over placebo: clinically significant trend
[1]; moderate patient subgroup (n=67), p=0.036
  Primary efficacy end point (two point drop in IGA and end of treatment IGA of 0 or 1) over placebo: statistically significant improvement
[1]; [3]
  Body surface area affected by atopic dermatitis, Week 8/ET Actual, Median: 12.0
  EASI, Week 8/ET Actual, Median: 7.4
  Eczema area and severity index (EASI), Week 8/ET Actual, Mean: 9.3
[1]; within four weeks of dosing, p=0.015
  Pruritus score [visual analog scale]: statistically significant reduction of itch
[2]; human
  Linearity of elimination half-life or clearance, free or total DGLA: no evidence of nonlinear pharmacokinetics
[2]
  Mean baseline-corrected Cmax and AUC0-24 for free and total DGLA versus dose: increased in a linear manner
